Test results published in patent US20190374627A1, “TARGET PEPTIDES FOR CANCER THERAPY AND DIAGNOSTICS” (priority 2016, published 2019).
Square brackets hold non-standard residues; d marks the D form. Ends that are not written are not given here. Met(O) = CS(=O)CC[C@H](N)C(=O)O; pS = N[C@@H](COP(=O)(O)O)C(=O)O

Columns and labels:
[1] = system: unexpanded lymphocyte cultures (CD8^+ T cells); assay: ICS for MHC-I-pP reactivity of lymphocyte cultures without expansion (Table 23, No Expansion)
CD8^+ T cells (PBMCs) = assay: Intracellular cytokine staining (ICS) of PBMCs after 7 days of stimulation with MHC-I-pP (healthy donors, HH patients); format: cell-based, human; details: for Reactive CD8^+ T cell population, HH2: HH patient HH2; for Reactive CD8^+ T cell population, HH3: HH patient HH3; for Reactive CD8^+ T cell population, HH6: HH patient HH6; for Reactive CD8^+ T cell population, HH8: HH patient HH8; for Reactive CD8^+ T cell population, HD1: Healthy donor HD1; for Reactive CD8^+ T cell population, HD4: Healthy donor HD4; for Reactive CD8^+ T cell population, HD5: Healthy donor HD5
Procedure, shortened: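 PBMCs or liver lymphocytes from HLA-A*0201-positive healthy donors and hereditary hemochromatosis patients were stimulated for 7 days with HLA-A*0201-restricted phosphopeptides and no added cytokines. After exclusion of doublets and dead cells with a fixable viability dye, CD3^+CD8^+ cells were analysed by intracellular staining for IFN-γ and TNF-α, plus CD107a where needed.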

[2] = system: expanded TIL / IHL cultures; assay: ICS for MHC-I-pP reactivity of liver-derived lymphocyte cultures after unspecific rapid expansion protocol (REP); format: cell-based, human
[3] = system: expanded lymphocyte cultures from deceased donor livers, cirrhotic livers and HCC; assay: ICS for MHC-I-pP reactivity of liver-derived lymphocyte cultures after phosphopeptide-specific expansion; format: cell-based, human; details: for ppCTL response, Deceased Donor Liver Do 2 / ppCTL response, Deceased Donor Liver Do 3 / ppCTL response, Deceased Donor Liver Do 4 / ppCTL response, Deceased Donor Liver Do 6 / ppCTL response, End-stage Liver Cirrhosis IHL 11 / ppCTL response, End-stage Liver Cirrhosis IHL 12 / ppCTL response, End-stage Liver Cirrhosis IHL 13 / ppCTL response, End-stage Liver Cirrhosis IHL 15 / ppCTL response, HCC Distal HCC 1 / ppCTL response, HCC Tumor HCC 1 / ppCTL response, HCC Distal HCC 4 / ppCTL response, HCC Distal HCC 9 / ppCTL response, HCC Tumor HCC 9 / ppCTL response, HCC Distal HCC 12: pP-specifically expanded culture; for ppCTL response, HCC Distal HCC 1: HCC 1 Distal; for ppCTL response, HCC Tumor HCC 1: HCC 1 Tumor; for ppCTL response, HCC Distal HCC 4: HCC 4 Distal; for ppCTL response, HCC Distal HCC 9: HCC 9 Distal; for ppCTL response, HCC Tumor HCC 9: HCC 9 Tumor; for ppCTL response, HCC Distal HCC 12: HCC 12 Distal

Row | Substance | Reactive CD8^+ T cells, No Expansion, HH6 [1] | Reactive CD8^+ T cell population, HH2 (CD8^+ T cells (PBMCs)) | Reactive CD8^+ T cell population, HH3 (CD8^+ T cells (PBMCs)) | Reactive CD8^+ T cell population, HH6 (CD8^+ T cells (PBMCs)) | Reactive CD8^+ T cell population, HH8 (CD8^+ T cells (PBMCs)) | Reactive CD8^+ T cell population, HD1 (CD8^+ T cells (PBMCs)) | Reactive CD8^+ T cell population, HD4 (CD8^+ T cells (PBMCs)) | Reactive CD8^+ T cell population, HD5 (CD8^+ T cells (PBMCs)) | Reactive CD8^+ T cells, Non-specific Expansion, Do2 [2] | Reactive CD8^+ T cells, Non-specific Expansion, Do4 [2] | Reactive CD8^+ T cells, Non-specific Expansion, HH6 [2] | Reactive CD8^+ T cells, pP-specific Expansion, Do2 [3] | Reactive CD8^+ T cells, pP-specific Expansion, Do4 [3] | Reactive CD8^+ T cells, pP-specific Expansion, HH6 [3] | ppCTL response, Deceased Donor Liver Do 2 [3] | ppCTL response, Deceased Donor Liver Do 3 [3] | ppCTL response, Deceased Donor Liver Do 4 [3] | ppCTL response, Deceased Donor Liver Do 6 [3] | ppCTL response, End-stage Liver Cirrhosis IHL 11 [3] | ppCTL response, End-stage Liver Cirrhosis IHL 12 [3] | also measured
1 | SImsPEIQL: CIC phosphopeptide, HLA-A*0201 (SI[Met(O)][pS]PEIQL; listed as Homo sapiens) | 0 (<0.25% reactive CD8^-+ T cells) | 1 (0.25-2.5% reactive CD8^-+ T cells) | 0 (<0.25% reactive CD8^-+ T cells) | 0 (<0.25% reactive CD8^-+ T cells) | 0 (<0.25% reactive CD8^-+ T cells) | 0 (<0.25% reactive CD8^-+ T cells) | 0 (<0.25% reactive CD8^-+ T cells) | 0 (<0.25% reactive CD8^-+ T cells) | 0 (<0.25% reactive CD8^-+ T cells) | 0 (<0.25% reactive CD8^-+ T cells) | 0 (<0.25% reactive CD8^-+ T cells) | 0 (<0.25% reactive CD8^-+ T cells) | 0 (<0.25% reactive CD8^-+ T cells) | 2 (2.5-5.0% reactive CD8^-+ T cells) | 0 (<0.25% reactive CD8-+ T cells) | 0 (<0.25% reactive CD8-+ T cells) | 0 (<0.25% reactive CD8-+ T cells) | 0 (<0.25% reactive CD8-+ T cells) | 0 (<0.25% reactive CD8-+ T cells) | 0 (<0.25% reactive CD8-+ T cells) | ppCTL response, End-stage Liver Cirrhosis IHL 13 [3]: 0 (<0.25% reactive CD8-+ T cells); ppCTL response, End-stage Liver Cirrhosis IHL 15 [3]: 0 (<0.25% reactive CD8-+ T cells); ppCTL response, HCC Distal HCC 1 [3]: 0 (<0.25% reactive CD8-+ T cells); ppCTL response, HCC Tumor HCC 1 [3]: 0 (<0.25% reactive CD8-+ T cells); ppCTL response, HCC Distal HCC 4 [3]: 0 (<0.25% reactive CD8-+ T cells); ppCTL response, HCC Distal HCC 9 [3]: 0 (<0.25% reactive CD8-+ T cells); ppCTL response, HCC Tumor HCC 9 [3]: 0 (<0.25% reactive CD8-+ T cells); ppCTL response, HCC Distal HCC 12 [3]: 0 (<0.25% reactive CD8-+ T cells)
2 | SMTRsPPRV: SRSF8 phosphopeptide, HLA-A*0201 (SMTR[pS]PPRV; listed as Homo sapiens) | 0 (<0.25% reactive CD8^-+ T cells) | 0 (<0.25% reactive CD8^-+ T cells) | 0 (<0.25% reactive CD8^-+ T cells) | 0 (<0.25% reactive CD8^-+ T cells) | 0 (<0.25% reactive CD8^-+ T cells) | 0 (<0.25% reactive CD8^-+ T cells) | 0 (<0.25% reactive CD8^-+ T cells) | 0 (<0.25% reactive CD8^-+ T cells) | 0 (<0.25% reactive CD8^-+ T cells) | 0 (<0.25% reactive CD8^-+ T cells) | 0 (<0.25% reactive CD8^-+ T cells) | 0 (<0.25% reactive CD8^-+ T cells) | 0 (<0.25% reactive CD8^-+ T cells) | 0 (<0.25% reactive CD8^-+ T cells) | 1 (0.25-2.5% reactive CD8-+ T cells) | 0 (<0.25% reactive CD8-+ T cells) | 0 (<0.25% reactive CD8-+ T cells) | 0 (<0.25% reactive CD8-+ T cells) | 0 (<0.25% reactive CD8-+ T cells) | 0 (<0.25% reactive CD8-+ T cells) | Reactive CD8^+ T cells, No Expansion, Do4 ([1]; Do4): 4 (7.5-10% reactive CD8^-+ T cells); Reactive CD8^+ T cell population, HH10 (CD8^+ T cells (PBMCs); HH patient HH10): 0 (<0.25% reactive CD8^-+ T cells); Reactive CD8^+ T cell population, HH11 (CD8^+ T cells (PBMCs); HH patient HH11): 0 (<0.25% reactive CD8^-+ T cells); Reactive CD8^+ T cell population, HD2 (CD8^+ T cells (PBMCs); Healthy donor HD2): 0 (<0.25% reactive CD8^-+ T cells); Reactive CD8^+ T cell population, HD3 (CD8^+ T cells (PBMCs); Healthy donor HD3): 0 (<0.25% reactive CD8^-+ T cells); ppCTL response, End-stage Liver Cirrhosis IHL 13 [3]: 0 (<0.25% reactive CD8-+ T cells); ppCTL response, End-stage Liver Cirrhosis IHL 15 [3]: 6 (>20% reactive CD8-+ T cells); ppCTL response, HCC Distal HCC 1 [3]: 0 (<0.25% reactive CD8-+ T cells); ppCTL response, HCC Tumor HCC 1 [3]: 0 (<0.25% reactive CD8-+ T cells); ppCTL response, HCC Distal HCC 4 [3]: 0 (<0.25% reactive CD8-+ T cells); ppCTL response, HCC Distal HCC 9 [3]: 0 (<0.25% reactive CD8-+ T cells); ppCTL response, HCC Tumor HCC 9 [3]: 0 (<0.25% reactive CD8-+ T cells); ppCTL response, HCC Distal HCC 12 [3]: 0 (<0.25% reactive CD8-+ T cells)
